Experimental findings from US11279687B2, “Compounds and compositions for the inhibition of NAMPT” (Valo Health, Inc., priority 2010, dated 2022) are described below.

In one experiment the test system is A2780 cells. In words: In-vitro cell proliferation assay (SRB), A2780 cells.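 Also: viable cell number read as SRB absorbance, background from media-only wells subtracted, IC50 interpolated from percent inhibition at two bracketing compound concentrations.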 The experiment is classed as cell-based. Particulars: A2780 cells, 72 hours, SRB, read-out: A2780 IC50.
For a further experiment, the target named is NAMPT (Homo sapiens (Human), UniProt P43490). Briefly: NAMPT biochemical inhibition assay (NMN quantified by mass spectrometry). Particulars: NAMPT biochemical inhibition; read-out: Biochem IC50.

Each structure is given as a SMILES string. Like-named read-outs stand apart in the source and are kept apart here.

NAMPT, sequence (P43490 whole entry): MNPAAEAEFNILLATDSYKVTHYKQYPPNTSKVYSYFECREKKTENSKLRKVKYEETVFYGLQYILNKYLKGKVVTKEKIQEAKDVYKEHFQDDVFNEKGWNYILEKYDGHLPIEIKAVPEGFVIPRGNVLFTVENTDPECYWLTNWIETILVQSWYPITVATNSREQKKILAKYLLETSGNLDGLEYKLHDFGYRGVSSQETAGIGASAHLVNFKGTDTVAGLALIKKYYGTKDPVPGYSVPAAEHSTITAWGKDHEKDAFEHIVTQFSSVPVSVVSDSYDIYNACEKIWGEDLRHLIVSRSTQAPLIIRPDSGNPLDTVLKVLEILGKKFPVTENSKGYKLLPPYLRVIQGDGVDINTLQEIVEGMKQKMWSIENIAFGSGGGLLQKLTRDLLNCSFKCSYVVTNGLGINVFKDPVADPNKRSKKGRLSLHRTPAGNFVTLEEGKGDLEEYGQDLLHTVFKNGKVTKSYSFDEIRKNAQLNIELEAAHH

With `Cc1nnc(-c2cccc(S(=O)(=O)c3ccc(NC(=O)NCc4cccnc4)cc3)c2)o1` [3-(4-{[3-(5-methyl-1,3,4-oxadiazol-2-yl)benzene]sulfonyl]phenyl)-1-(pyridin-3-ylmethyl)urea], the IC50 in the experiment on A2780 cells was 100 to 1000 nM; on NAMPT, 7.3 nM.
In the case of `O=C(NCc1ccc2nccn2c1)c1ccc(S(=O)(=O)c2cccc(Cl)c2)cc1` [4-[(3-chlorobenzene)sulfonyl]-N-{imidazo[1,2-a]pyridin-6-ylmethyl}benzamide], the IC50 came to 6.39 nM in the experiment with A2780 cells (Homo sapiens, A2780, 72 h) and 12.1 nM on NAMPT.
On to `CCCOc1cccc(S(=O)(=O)c2ccc(NC(=O)NCc3cccnc3)cc2)c1` [3-{4-[(3-propoxybenzene)sulfonyl]phenyl}-1-(pyridin-3-ylmethyl)urea], for which the IC50 with A2780 cells (Homo sapiens, A2780, 72 h) was 100 to 1000 nM; at NAMPT it was 3.8 nM.
Turning to `O=C(NCc1cccnc1)Nc1ccc(S(=O)(=O)c2cccc(Cl)c2)cc1` [3-{4-[(3-chlorobenzene)sulfonyl]phenyl}-1-(pyridin-3-ylmethyl)urea], the IC50 in the experiment with A2780 cells (Homo sapiens, A2780, 72 h) amounted to 518 nM; on NAMPT it was 3 nM.
Regarding `COc1cc(-n2cccn2)ccc1S(=O)(=O)c1ccc(NC(=O)NCc2cccnc2)cc1` [3-(4-{[2-methoxy-4-(1H-pyrazol-1-yl)benzene]sulfonyl}phenyl)-1-(pyridin-3-ylmethyl)urea], the IC50 with A2780 cells (Homo sapiens, A2780, 72 h) was determined as 3 nM; on NAMPT it was 2 nM.
As to `COc1ccc(Cl)cc1NS(=O)(=O)c1ccc(C(=O)NCCc2cccnc2)cc1` [4-[(5-chloro-2-methoxyphenyl)sulfamoyl]-N-[2-(pyridin-3-yl)ethyl]benzamide], the 50% inhibitory concentration (IC50) amounted to 31.2 nM in the experiment with A2780 cells (Homo sapiens, A2780, 72 h) and 4720 nM at NAMPT.
As for `Cc1cc(Cl)ccc1S(=O)(=O)c1ccc(NC(=O)NCc2cccnc2)cc1` [3-{4-[(4-chloro-2-methylbenzene)sulfonyl]phenyl}-1-(pyridin-3-ylmethyl)urea], the IC50 in the experiment with A2780 cells (Homo sapiens, A2780, 72 h) is 755 nM; on NAMPT it was 6 nM.
As to `COc1ccc(F)cc1S(=O)(=O)c1ccc(NC(=O)NCc2cccnc2)cc1` [3-{4-[(5-fluoro-2-methoxybenzene)sulfonyl]phenyl}-1-(pyridin-3-ylmethyl)urea], the IC50 stood at 4 nM in the experiment on A2780 cells (Homo sapiens, A2780, 72 h) and 2 nM at NAMPT.
As for `CN(C)C(=O)C1CCN(S(=O)(=O)c2ccc(NC(=O)NCc3cccnc3)cc2)CC1` [N,N-dimethyl-1-[(4-{[(pyridin-3-ylmethyl)carbamoyl]amino}benzene)sulfonyl]piperidine-4-carboxamide], the IC50 in the experiment with A2780 cells (Homo sapiens, A2780, 72 h) was 164 nM; at NAMPT, 9 nM.
Taken in the same sequence, the figures for `O=C(NCc1cccnc1)Nc1ccc(S(=O)(=O)n2cccc2)cc1` [1-(pyridin-3-ylmethyl)-3-[4-(1H-pyrrole-1-sulfonyl)phenyl]urea] were 1790 nM and 19 nM.
For the compound `COc1ccc2cc(S(=O)(=O)c3ccc(NC(=O)NCc4cccnc4)cc3)ccc2c1` [3-[4-(6-methoxynaphthalene-2-sulfonyl)phenyl]-1-(pyridin-3-ylmethyl)urea], the IC50 in the experiment with A2780 cells (Homo sapiens, A2780, 72 h) is 100 to 1000 nM; at NAMPT, 1.6 nM.
The matching figures for `CC1CCN(S(=O)(=O)c2ccc(NC(=O)NCc3cccnc3)cc2)CC(C)(C)C1` (stereo not shown) [1-(pyridin-3-ylmethyl)-3-[4-(3,3,5-trimethylazepane-1-sulfonyl)phenyl]urea]: 9.2 nM and 2 nM.
`O=C(NCc1cccnc1)Nc1ccc(S(=O)(=O)N2CCCC[C@@H]2Cc2ccccc2)cc1` [1-{4-[(2R)-2-benzylpiperidine-1-sulfonyl]phenyl}-3-(pyridin-3-ylmethyl)urea]: the concentration for half-maximal inhibition (IC50) with A2780 cells (Homo sapiens, A2780, 72 h) was 24 nM; at NAMPT, 4 nM.
For the compound `O=C(NCc1cccnc1)Nc1ccc(S(=O)(=O)c2cccc3cc[nH]c23)cc1` [1-[4-(1H-indole-7-sulfonyl)phenyl]-3-(pyridin-3-ylmethyl)urea], the IC50 in the experiment with A2780 cells (Homo sapiens, A2780, 72 h) came out at 3.4 nM; on NAMPT, 0.5 nM.
The matching figures for `CN1CCCC2(CCCN(S(=O)(=O)c3ccc(NC(=O)NCc4cccnc4)cc3)C2)C1` (stereo not shown) [3-(4-{8-methyl-2,8-diazaspiro[5.5]undecane-2-sulfonyl}phenyl)-1-(pyridin-3-ylmethyl)urea]: 1 nM and 1 nM.
Turning to `O=C(NCc1cccnc1)Nc1ccc(S(=O)(=O)N2CCC(C(=O)N3CCOCC3)CC2)cc1` [3-(4-{4-[(morpholin-4-yl)carbonyl]piperidine-1-sulfonyl}phenyl)-1-(pyridin-3-ylmethyl)urea], the IC50 worked out at 40 nM in the experiment with A2780 cells (Homo sapiens, A2780, 72 h) and 8 nM at NAMPT.
As to `CC(=O)c1ccc(NS(=O)(=O)c2ccc(NC(=O)NCc3cccnc3)cc2)cc1` [3-{4-[(4-acetylphenyl)sulfanoyl]phenyl}-1-(pyridin-3-ylmethyl)urea], the half-maximal inhibitory concentration (IC50) with A2780 cells (Homo sapiens, A2780, 72 h) was 1000 to 10000 nM; on NAMPT, 14.4 nM.
For `CC(=O)c1ccccc1S(=O)(=O)c1ccc(NC(=O)NCc2cccnc2)cc1` [3-{4-[(2-acetylbenzene)sulfonyl]phenyl}-1-(pyridin-3-ylmethyl)urea], the IC50 with A2780 cells (Homo sapiens, A2780, 72 h) stood at 326 nM; on NAMPT, 2 nM.
Taken in the same sequence, the figures for `O=C(NCc1cccnc1)Nc1ccc(S(=O)(=O)c2ccc3c(c2)OCO3)cc1` [1-[4-(2H-1,3-benzodioxole-5-sulfonyl)phenyl]-3-(pyridin-3-ylmethyl)urea] were 322 nM and 1 nM.
As for `CC(C)(C)OC(=O)Nc1ccc(CNC(=O)Nc2ccc(S(=O)(=O)N3CCCCC3)cc2)cn1` [tert-butylN-{5-[({[4-(piperidine-1-sulfonyl)phenyl]carbamoyl}amino)methyl]pyridin-2-yl}carbamate], the half-maximal inhibitory concentration (IC50) in the experiment on A2780 cells (Homo sapiens, A2780, 72 h) came to 9780 nM; at NAMPT, 3140 nM.
With `O=C(NCc1cccnc1)Nc1ccc(S(=O)(=O)c2ccc(C(F)(F)F)c(F)c2)cc1` [3-(4-{[3-fluoro-4-(trifluoromethyl)benzene]sulfonyl}phenyl)-1-(pyridin-3-ylmethyl)urea], the half-inhibitory concentration (IC50) in the experiment with A2780 cells (Homo sapiens, A2780, 72 h) was 100 to 1000 nM; at NAMPT, 4.1 nM.
As to `CNC(=O)c1ccccc1NS(=O)(=O)c1ccc(NC(=O)NCc2cccnc2)cc1` [N-methyl-2-[(4-{[(pyridin-3-ylmethyl)carbamoyl]amino}benzene)sulfonamido]benzamide], the IC50 stood at 11 nM in the experiment with A2780 cells (Homo sapiens, A2780, 72 h) and 1 nM at NAMPT.
Turning to `Cc1ccc(C)c(S(=O)(=O)c2ccc(NC(=O)NCc3cccnc3)cc2)c1` [3-{4-[(2,5-dimethylbenzene)sulfonyl]phenyl}-1-(pyridin-3-ylmethyl)urea], the IC50 in the experiment on A2780 cells (Homo sapiens, A2780, 72 h) was found to be 473 nM; at NAMPT it was 14 nM.
With `CC(C)Oc1ccccc1NS(=O)(=O)c1ccc(NC(=O)NCc2cccnc2)cc1` [3-(4-{[2-(propan-2-yloxy)phenyl]sulfamoyl}phenyl)-1-(pyridin] [3-(4-{[2-(propan-2-yloxy)phenyl]sulfamoyl}phenyl)-1-(pyridin-3-ylmethyl)urea], the results for the IC50 with A2780 cells and at NAMPT were 15 nM and 2 nM, respectively.
In the case of `O=C(NCc1cccnc1)Nc1ccc(S(=O)(=O)c2ccc3ncccc3c2)cc1` [3-(pyridin-3-ylmethyl)-1-[4-(quinoline-6-sulfonyl)phenyl]urea], the IC50 in the experiment with A2780 cells (Homo sapiens, A2780, 72 h) was 44.1 nM; on NAMPT, 2.7 nM.
For `O=C(NCc1ccc[n+]([O-])c1)Nc1ccc(S(=O)(=O)c2ccc(Cl)cc2)cc1` [3-{[({4-[(4-chlorobenzene)sulfonyl]phenyl}carbamoyl)amino]methyl}pyridin-1-ium-1-olate], the IC50 was greater than 30000 nM with A2780 cells and 728 nM at NAMPT.

The IC50 is the point on the concentration scale where inhibition reaches its midpoint.
